Source: US20240166594A1, “PHOTOCAGED CITRULLINE ANALOGS AND METHODS FOR SITE-SPECIFIC INCORPORATION OF CITRULLINE INTO PROTEINS” (University of Massachusetts, priority 2021, published 2024)
Read-outs that look alike come from different tables or passages of the source.

Assays:
[1] = Photodecaging to citrulline with 365 nm UV (HPLC, LC-MS, 1H NMR); assay type: physicochemical; details: up to 5 min, PBS pH 7.4 with 2 mM DTT (SM70: 1:1 acetonitrile/PBS)
Text: FIG. 1. SM60, a photocaged-citrulline and its conversion to citrulline with 365 nm UV light. a, Conversion of peptidyl-arginine to peptidyl-citrulline by the PADs. b, Chemical structures of SM60 and SM70. c, Schematic representation of the incorporation of SM60 into proteins by an engineered LeuRS-tRNA^Leu pair and subsequent conversion to citrulline. d, Decaging of SM60 to citrulline with 365 nm UV irradiation. Left and right panels indicate the HPLC and ion chromatograms, showing the disappearance of SM60 and the formation of citrulline (Cit), respectively, with increasing UV exposure. Quantitative analyses of decaging and Cit formation are shown in the insets. Assay mixture: 1 mM SM60, 2 mM DTT, Phosphate-buffered saline pH 7.4.
FIG. 8. ^1H NMR spectrum of SM60 in D2O after UV (365 nm) exposure for 1, 2, 3, 4 and 5 min. […] Furthermore, an upfield shift was also observed for the ‘b’ protons upon the formation of citrulline. The multiplets at 3.6-3.7 and 2.6-2.7 ppm are due to DTT used in the assay. Assay condition: 1 mM SM60, 2 mM DTT, D2O.
FIG. 9. (A) Photodecaging of Fmoc-SM60 to produce Fmoc-Cit. (B) HPLC chromatograms indicating the disappearance of Fmoc-SM60 and the production of Fmoc-Cit with increasing UV exposure. […] Assay mixture: 0.5 mM Fmoc-SM60, 2 mM DTT, Phosphate-buffered saline pH 7.4. ESI-Mass spectra of Fmoc-SM60 (C) and Fmoc-Cit (D).
FIG. 10. […]

HEK293T cells = experiment: Cytotoxicity of SM60 in HEK293T cells (CellTiter-Blue); assay type: cell-based; details: Homo sapiens, HEK-293T, 48 h, read-out: EC50 for inhibition of cell proliferation
Experimental: HEK293T cells were seeded (2×10^4 cells/well) on a 96-well plate and grown in DMEM (supplemented with 10% heat-inactivated fetal bovine serum, 100 units/mL penicillin, 100 μg/mL streptomycin) for 48 h. Cells were then treated with DMSO (for control) or various concentrations of SM60. In a separate experiment, cells were briefly (3 min) irradiated with 365 nm UV following SM60 treatment and were allowed to grow at 37° C. for 48 h. Cell viability was measured using CellTiter-Blue® (Promega) by following the manufacturer's protocol. Equation 1,
Y=Bottom+(Top−Bottom)/[1+10^((log EC50−X)*Hillslope)] (1),
was used to fit a ten-point dose-response curve to determine the EC50 values for inhibition of cell-proliferation using GraphPad Prism 8.0. Top and Bottom are plateaus of the dose-response curve, X is the log of SM60-concentration, Hillslope is the slope factor or Hill slope. All the experiments were performed in triplicate.

[2] = tested on: EcLeuRS-tRNACUA^EcLeu pair; experiment: EGFP-39-TAG reporter expression assay in HEK293T cells; assay type: cell-based; details: EcLeuRS mutant (M40I, Y499I, Y527A, H529G, T252A)
Text: The first two pairs are restricted to structural analogs of phenylalanine and tryptophan, respectively, precluding their use to genetically encode SM60. However, both the archaeal pyrrolysyl (PylRS/tRNA^Pyl) and E. coli leucyl (EcLeuRS-tRNACUA^EcLeu) pairs have been engineered to charge UAAs structurally similar to SM60. […] This property has provided a facile route to rapidly expand the repertoire of genetically encoded UAAs without having to engineer new aaRS mutants for each distinct substrate. To explore if such a polyspecific aaRS can accept SM60 as a substrate, several existing PylRS and EcLeuRS mutants were screened using an EGFP-39-TAG expression assay in HEK293T cells in the presence of their cognate amber suppressor tRNA. […] Furthermore, UV irradiation of cells expressing EGFP-39-SM60 before lysis followed by protein purification and MS analysis afforded a single protein mass consistent with the complete deprotection and incorporation of citrulline at position 39 of EGFP (FIG. 2d).
HEK293T cells were maintained at 37° C. in a humidified incubator supplemented with 5% CO2. […]
EGFP fluorescence was analyzed 48 h after transfection. […] Lysate were clarified by centrifugation at 16,000×g for 10 min and 100 μL of supernatant was transferred to a clear-bottom 96-well plate for fluorescence measurement following previously described protocol. […]

N[C@@H](CCCNC(=O)NCc1ccccc1[N+](=O)[O-])C(=O)O [SM60]
photodecaging / conversion to citrulline form [1]: quantitatively converted to Cit | EC50 (HEK293T cells; SM60 alone): > 10 mM | EC50 (HEK293T cells; combination of SM60 and 365 nm UV (3 min)): 4.5 ± 0.2 mM | EGFP-39-TAG reporter expression [2]: robust expression of the fluorescence reporter only when SM60 was supplemented in the medium
